# Assay results from article PMC7327383, “The affinity and selectivity of α‐adrenoceptor antagonists, antidepressants, and antipsychotics for the human α1A, α1B, and α1D‐adrenoceptors” (Pharmacology Research & Perspectives, 2020).
# Where two headings read alike, the source gives them in different places.
# What was measured:
# human α1B-adrenoceptor = target: T1, human α1B-adrenoceptor (Homo sapiens, UniProt P35368); test: [3H]prazosin whole-cell competition binding, CHO-α1B cells; conditions: for IC50: read-out: Log IC50 α1B (converted)
# T1 construct: CHO cells stably expressing either the full‐length human α1A, α1B, or α1D‐adrenoceptor
# T1 sequence (P35368 1-520): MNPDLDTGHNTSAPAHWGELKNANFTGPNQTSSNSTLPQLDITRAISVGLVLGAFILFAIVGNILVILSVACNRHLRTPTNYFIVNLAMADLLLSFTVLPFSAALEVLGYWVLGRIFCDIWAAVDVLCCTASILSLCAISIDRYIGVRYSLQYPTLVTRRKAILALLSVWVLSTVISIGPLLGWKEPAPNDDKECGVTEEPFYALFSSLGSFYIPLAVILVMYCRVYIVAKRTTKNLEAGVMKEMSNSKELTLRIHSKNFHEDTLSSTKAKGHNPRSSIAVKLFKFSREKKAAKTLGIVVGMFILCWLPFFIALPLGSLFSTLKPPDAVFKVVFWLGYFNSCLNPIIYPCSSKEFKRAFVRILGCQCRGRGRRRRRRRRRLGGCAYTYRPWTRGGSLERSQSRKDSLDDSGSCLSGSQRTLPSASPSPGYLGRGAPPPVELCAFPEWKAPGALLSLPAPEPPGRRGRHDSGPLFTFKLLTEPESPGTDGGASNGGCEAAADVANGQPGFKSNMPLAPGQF
# human α1A-adrenoceptor = target: T2, human α1A-adrenoceptor (Homo sapiens, UniProt P35348); test: [3H]prazosin whole-cell competition binding, CHO-α1A cells
# T2 construct: CHO cells stably expressing either the full‐length human α1A, α1B, or α1D‐adrenoceptor
# T2 sequence (P35348 1-466): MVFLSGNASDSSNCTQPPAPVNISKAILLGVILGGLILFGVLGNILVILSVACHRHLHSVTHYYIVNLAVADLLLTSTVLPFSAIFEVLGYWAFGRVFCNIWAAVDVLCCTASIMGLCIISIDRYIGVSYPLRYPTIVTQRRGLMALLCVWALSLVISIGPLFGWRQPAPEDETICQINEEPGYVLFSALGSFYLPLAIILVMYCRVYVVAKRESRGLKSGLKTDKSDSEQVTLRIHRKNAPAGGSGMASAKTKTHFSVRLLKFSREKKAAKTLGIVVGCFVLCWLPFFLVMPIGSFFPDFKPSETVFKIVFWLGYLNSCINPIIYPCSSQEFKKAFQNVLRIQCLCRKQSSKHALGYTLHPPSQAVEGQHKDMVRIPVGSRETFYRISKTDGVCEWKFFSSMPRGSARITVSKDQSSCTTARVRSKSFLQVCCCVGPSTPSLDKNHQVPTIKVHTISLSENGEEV
# [1] = target: T3, full-length human α1D-adrenoceptor (Homo sapiens, UniProt P25100); test: [3H]prazosin whole-cell competition binding, CHO-α1D cells
# T3 sequence (P25100 1-572): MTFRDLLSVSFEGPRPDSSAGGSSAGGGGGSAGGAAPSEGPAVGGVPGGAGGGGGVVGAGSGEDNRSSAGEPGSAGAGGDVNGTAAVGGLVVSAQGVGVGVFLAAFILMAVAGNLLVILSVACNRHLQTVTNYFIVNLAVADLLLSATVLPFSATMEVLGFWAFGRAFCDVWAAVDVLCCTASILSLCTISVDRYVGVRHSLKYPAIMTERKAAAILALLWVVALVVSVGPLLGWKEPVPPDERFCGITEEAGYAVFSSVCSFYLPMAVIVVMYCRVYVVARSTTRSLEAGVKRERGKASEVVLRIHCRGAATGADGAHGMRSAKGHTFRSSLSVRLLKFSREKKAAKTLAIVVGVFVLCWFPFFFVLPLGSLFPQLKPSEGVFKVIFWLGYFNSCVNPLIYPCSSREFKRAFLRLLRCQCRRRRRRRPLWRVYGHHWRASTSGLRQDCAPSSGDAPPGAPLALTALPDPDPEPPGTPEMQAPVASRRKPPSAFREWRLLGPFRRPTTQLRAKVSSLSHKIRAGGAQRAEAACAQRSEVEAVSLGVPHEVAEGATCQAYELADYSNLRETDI
# [2] = log KD from 3H-prazosin whole cell binding, CHO cells, mean ± s.e.mean
# [3] = single-component inhibition curve, given as log KD (negative), mean ± SE mean
# [4] = single-component inhibition curve, given as log KD (negative), mean ± SE mean, read-out: Log KD α1B (converted)
# [5] = Log KD α1D, single-component inhibition curve, given as log KD (negative), mean ± SE mean
# [6] = percentage of inhibition through first component, control
# [7] = two-component inhibition curve, proportion of site 1
# [8] = Log KD α1D site 1, high-affinity component of two-component curve, control, used for selectivity
# [9] = low-affinity component of two-component curve, control
compound,measurement,setting,value
COc1ccccc1N1CCN(CCn2c(=O)[nH]c3c([nH]c4ccccc43)c2=O)CC1 [3-MPPI],Log KD α1B,human α1B-adrenoceptor; [2],-8.59 ± 0.03
same,Log KD α1A,human α1A-adrenoceptor; [2],-9.57 ± 0.06
COc1ccccc1N1CCN(CCn2c(=O)[nH]c3c([nH]c4ccccc43)c2=O)CC1 [3‐MPPI],Log KD α1B,human α1B-adrenoceptor; [3],−8.59 ± 0.03
same,Log KD α1A,human α1A-adrenoceptor; [3],−9.57 ± 0.06
COc1cc2nc(N(C)CCCNC(=O)C3CCCO3)nc(N)c2cc1OC (stereo not shown) [Alfuzosin],Kd,human α1B-adrenoceptor; [4],0.0275 µM
same,Kd,[1]; [5],0.0219 µM
O=C1CCc2ccc(OCCCCN3CCN(c4cccc(Cl)c4Cl)CC3)cc2N1 [Aripiprazole],Kd,[1]; [5],0.708 µM
COc1ccccc1N1CCN(CCN2C(=O)CC3(CCCC3)CC2=O)CC1 [BMY7378],Kd,human α1B-adrenoceptor; [4],0.589 µM
same,% site 1 α1D,[1]; [6],57.7 ± 2.6% site 1
same,% site 1 α1D,[1]; [7],-8.60 ± 0.13 -5.93 ± 0.37 57.7 ± 2.6% site 1
CC(C)C[C@H]1C(=O)N2CCC[C@H]2[C@]2(O)O[C@](NC(=O)[C@@H]3C=C4c5cccc6[nH]c(Br)c(c56)C[C@H]4N(C)C3)(C(C)C)C(=O)N12 [Bromocriptine],Kd,human α1B-adrenoceptor; [4],0.011 µM
same,Kd,[1],0.049 µM
COc1ccccc1OCCNCC(O)COc1cccc2[nH]c3ccccc3c12 (stereo not shown) [Carvedilol],Kd,[1]; [5],0.0135 µM
CN(C)CCCN1c2ccccc2Sc2ccc(Cl)cc21 [Chlorpromazine],Kd,human α1B-adrenoceptor; [4],0.0145 µM
same,% site 1 α1D,[1]; [6],56.0 ± 5.0% site 1
CN(C)CCCC1(c2ccc(F)cc2)OCc2cc(C#N)ccc21 (stereo not shown) [Citalopram],IC50,human α1B-adrenoceptor,> 100 µM
same,Kd,[1]; [5],12.3 µM
CNCCCN1c2ccccc2CCc2ccccc21 [Desipramine],Kd,human α1B-adrenoceptor; [4],2.69 µM
same,Kd,[1]; [5],3.47 µM
O=c1[nH]c2ccccc2n1CCCN1CCC(n2c(=O)[nH]c3cc(Cl)ccc32)CC1 [Domperidone],Kd,human α1B-adrenoceptor; [4],3.16 µM
same,Kd,[1]; [5],1.05 µM
CN(C)CCC=C1c2ccccc2COc2ccccc21 [Doxepin],Kd,human α1B-adrenoceptor; [4],0.661 µM
same,Kd,[1]; [5],0.537 µM
CNCC[C@H](Oc1cccc2ccccc12)c1cccs1 [Duloxetine],Kd,human α1B-adrenoceptor; read-out: Log KD α1B (apparent) (converted),19.5 µM
same,Kd,[1],2.63 µM
CNCCC(Oc1ccc(C(F)(F)F)cc1)c1ccccc1 (stereo not shown) [Fluoxetine],Kd,[1]; [5],12.6 µM
COCCCC/C(=N\OCCN)c1ccc(C(F)(F)F)cc1 [Fluvoxamine],IC50,human α1B-adrenoceptor,> 100 µM
same,Kd,[1]; [5],10.7 µM
O=C1[C@@H]2[C@H]3CC[C@H](C3)[C@@H]2C(=O)N1C[C@@H]1CCCC[C@H]1CN1CCN(c2nsc3ccccc23)CC1 [Lurasidone],Kd,human α1B-adrenoceptor; [4],0.0676 µM
same,Kd,[1]; [8],0.00646 µM
same,Log KD α1D site 2,[1]; [9],−5.92 ± 0.06
same,% site 1 α1D,[1]; [6],24.8 ± 3.1% site 1
same,% site 1 α1D,[1]; [7],-8.19 ± 0.10 -5.92 ± 0.06 24.8 ± 3.1% site 1
CN1CCN2c3ncccc3Cc3ccccc3C2C1 (stereo not shown) [Mirtazepine],Log KD α1B,human α1B-adrenoceptor; [3],−5.36 ± 0.03
Fc1ccc([C@@H]2CCNC[C@H]2COc2ccc3c(c2)OCO3)cc1 [Paroxetine],IC50,human α1B-adrenoceptor,> 10 µM
same,Kd,[1]; [5],2.34 µM
OCCN1CCN(CCCN2c3ccccc3Sc3ccc(Cl)cc32)CC1 [Perphenazine],Kd,human α1B-adrenoceptor; [4],0.0372 µM
same,Kd,[1]; [8],0.0138 µM
same,Log KD α1D site 2,[1]; [9],−6.03 ± 0.19
same,% site 1 α1D,[1]; [6],53.3 ± 4.1% site 1
same,% site 1 α1D,[1]; [7],-7.86 ± 0.10 -6.03 ± 0.19 53.3 ± 4.1% site 1
CC(COc1ccccc1)N(CCCl)Cc1ccccc1 (stereo not shown) [Phenoxybenzamine],Kd,"human α1B-adrenoceptor; high-affinity component of two-component curve, control, read-out: Log KD α1B site 1 (converted)",0.0204 µM
same,Log KD α1B site 2,human α1B-adrenoceptor; [9],−5.57 ± 0.06
same,"% site 1, α1B",human α1B-adrenoceptor; share of site 1 in the two-component inhibition curve,-7.69 ± 0.06 -5.57 ± 0.06 67.5 ± 2.5% site 1
same,"% site 1, α1B",human α1B-adrenoceptor; [7],-7.69 ± 0.06 -5.57 ± 0.06 67.5 ± 2.5% site 1
same,Kd,[1],0.00372 µM
same,Log KD α1D site 2,[1]; [9],−5.42 ± 0.08
same,% site 1 α1D,[1]; [7],-8.43 ± 0.19 -5.42 ± 0.08 39.1 ± 2.0% site 1
Cc1ccc(N(CC2=NCCN2)c2cccc(O)c2)cc1 [Phentolamine],% site 1 α1D,[1]; [6],60.5 ± 3.8% site 1
O=c1[nH]c2ccccc2n1C1CCN(CCCC(c2ccc(F)cc2)c2ccc(F)cc2)CC1 [Pimozide],Kd,human α1B-adrenoceptor; [4],0.162 µM
same,Kd,[1]; [5],1.12 µM
CN1CCN(CCCN2c3ccccc3Sc3ccc(Cl)cc32)CC1 [Prochlorperazine],Kd,human α1B-adrenoceptor; [4],0.132 µM
same,Kd,[1]; [5],0.295 µM
CC(C)NCC(O)COc1cccc2ccccc12 (stereo not shown) [Propranolol],Kd,"human α1B-adrenoceptor; app: top concentration inhibited most but not all specific binding, curve extrapolated, read-out: Log KD α1B (apparent) (converted)",105 µM
same,Kd,[1]; [5],12.9 µM
OCCOCCN1CCN(C2=Nc3ccccc3Sc3ccccc32)CC1 [Quetiapine],Kd,human α1B-adrenoceptor; [4],0.0617 µM
same,Kd,[1]; [5],0.331 µM
COc1cc2nc(N3CCN(C(=O)COc4c(OC)cccc4C(C)C)CC3)nc(N)c2cc1OC [Rec15-2615],Log KD α1D,[1]; [2],-7.89 ± 0.07
COc1cc2nc(N3CCN(C(=O)COc4c(OC)cccc4C(C)C)CC3)nc(N)c2cc1OC [Rec15‐2615],Log KD α1D,[1]; [3],−7.89 ± 0.07
CCOc1ccccc1OCCN[C@H](C)Cc1ccc(OC)c(S(N)(=O)=O)c1 [Tamsulosin],Kd,"human α1B-adrenoceptor; Log KD α1B, +1 mmol/L sodium thiosulphate, ligand preincubated 30 min with thiosulphate, single-component curve (column Log KD site 1)",0.00741 µM
same,Kd,human α1B-adrenoceptor; [4],0.00759 µM
same,Log KD α1D site 2,[1],−5.67 ± 0.15
same,"Log KD α1D site 2, +1 mmol/L sodium thiosulphate",[1],−5.60 ± 0.08
same,effect of sodium thiosulfate preincubation on binding,"[1]; 1 mmol/L sodium thiosulfate, tamsulosin at all three receptors (Table 2)",no effect
same,Kd,"[1]; Log KD α1D site 1, +1 mmol/L sodium thiosulphate, two-component curve, high-affinity component",0.000776 µM
same,Kd,[1]; [8],0.000661 µM
same,"% site 1 α1D, +1 mmol/L sodium thiosulphate",[1]; two-component curve,44.0 ± 2.8%
same,% site 1 α1D,[1]; [7],-9.18 ± 0.08 -5.67 ± 0.15 54.6 ± 3.7% site 1
COc1cc2nc(N3CCN(C(=O)C4CCCO4)CC3)nc(N)c2cc1OC (stereo not shown) [Terazosin],Kd,[1]; [5],0.0195 µM
O=c1n(CCCN2CCN(c3cccc(Cl)c3)CC2)nc2ccccn12 [Trazodone],Kd,human α1B-adrenoceptor; [4],0.275 µM
same,Kd,[1]; [5],0.417 µM
CN1CCN(CCCN2c3ccccc3Sc3ccc(C(F)(F)F)cc32)CC1 [Trifluoperazine],Kd,human α1B-adrenoceptor; [4],0.132 µM
same,Kd,[1]; [5],0.437 µM
CC(CN(C)C)CN1c2ccccc2CCc2ccccc21 (stereo not shown) [Trimipramine],Kd,human α1B-adrenoceptor; [4],0.794 µM
same,Kd,[1]; [5],1.02 µM
COc1cccc(OC)c1OCCNCC1COc2ccccc2O1 (stereo not shown) [WB4104],Log KD α1A,human α1A-adrenoceptor; [3],−9.03 ± 0.04
